Read-outs that look alike come from different tables or passages of the source.
Tests used:
Type in all cases: in vivo
[1] = system: ragweed (common ragweed, Ambrosia elatior); assay: Test A postemergence; details: Ambrosia artemisiifolia, post-emergence, 240 h, Postemergence; for pest or weed control at 125 g/ha: 125 g ai/ha, visual rating about 10 d after treatment, read-out: Ragweed plant response rating (0 to 100 scale); for pest or weed control at 500 g/ha: 500 g ai/ha, visual injury, 0 to 100 scale (0 no effect, 100 complete control), approx. 10 d, read-out: Plant response rating, Ragweed
Summary of the method: (§1)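 Seeds sprayed preemergence with a directed soil spray, or plants at 2 to 10 cm height and one- to two-leaf stage sprayed postemergence, with test chemicals in a non-phytotoxic solvent mixture containing surfactant, in loam soil–sand blend. Injury rated visually against untreated controls after about 10 d in greenhouse, 0 (no effect) to 100 (complete control).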

[2] = system: blackgrass (Alopecurus myosuroides); assay: Test A postemergence; details: Alopecurus myosuroides, post-emergence, 240 h, Postemergence; for pest or weed control at 125 g/ha: 125 g ai/ha, visual rating about 10 d after treatment, read-out: Blackgrass plant response rating (0 to 100 scale); for pest or weed control at 500 g/ha: 500 g ai/ha, visual injury, 0 to 100 scale (0 no effect, 100 complete control), approx. 10 d, read-out: Plant response rating, Blackgrass
Summary of the method: as §1

[3] = system: giant foxtail (Setaria faberii); assay: Test A postemergence; details: Setaria faberi, post-emergence, 240 h, Postemergence; for pest or weed control at 125 g/ha: 125 g ai/ha, visual rating about 10 d after treatment, read-out: Foxtail, Giant plant response rating (0 to 100 scale); for pest or weed control at 500 g/ha: 500 g ai/ha, visual injury, 0 to 100 scale (0 no effect, 100 complete control), approx. 10 d, read-out: Plant response rating, Foxtail, Giant
Summary of the method: as §1

[4] = system: barnyardgrass (Echinochloa crus-galli); assay: Test A postemergence; details: Echinochloa crus-galli, post-emergence, 240 h, Postemergence; for pest or weed control at 125 g/ha: 125 g ai/ha, visual rating about 10 d after treatment, read-out: Barnyardgrass plant response rating (0 to 100 scale, 0 no effect, 100 complete control); for pest or weed control at 500 g/ha: 500 g ai/ha, visual injury, 0 to 100 scale (0 no effect, 100 complete control), approx. 10 d, read-out: Plant response rating, Barnyardgrass
Summary of the method: as §1

[5] = system: wheat (Triticum aestivum); assay: Test A postemergence; details: Triticum aestivum, post-emergence, 240 h, Postemergence; for plant injury at 125 g/ha: 125 g ai/ha, visual rating about 10 d after treatment, read-out: Wheat plant response rating (0 to 100 scale); for plant injury at 500 g/ha: 500 g ai/ha, visual injury, 0 to 100 scale (0 no effect, 100 complete control), approx. 10 d, read-out: Plant response rating, Wheat
Summary of the method: as §1

[6] = system: pigweed (Amaranthus retroflexus); assay: Test A postemergence; details: Amaranthus retroflexus, post-emergence, 240 h, Postemergence; for pest or weed control at 125 g/ha: 125 g ai/ha, visual rating about 10 d after treatment, read-out: Pigweed plant response rating (0 to 100 scale); for pest or weed control at 500 g/ha: 500 g ai/ha, visual injury, 0 to 100 scale (0 no effect, 100 complete control), approx. 10 d, read-out: Plant response rating, Pigweed
Summary of the method: as §1

[7] = system: ryegrass, Italian (Italian ryegrass, Lolium multiflorum); assay: Test A postemergence; details: Lolium multiflorum, post-emergence, 240 h, Postemergence; for pest or weed control at 125 g/ha: 125 g ai/ha, visual rating about 10 d after treatment, read-out: Ryegrass, Italian plant response rating (0 to 100 scale); for pest or weed control at 500 g/ha: 500 g ai/ha, visual injury, 0 to 100 scale (0 no effect, 100 complete control), approx. 10 d, read-out: Plant response rating, Ryegrass, Italian
Summary of the method: as §1

corn (Zea mays) = assay: Test A postemergence; details: Zea mays, post-emergence, 240 h, Postemergence; for plant injury at 125 g/ha: 125 g ai/ha, visual rating about 10 d after treatment, read-out: Corn plant response rating (0 to 100 scale); for Corn plant response rating (crop injury, 0 = no effect, 100 = complete kill) at 500 g/ha: 500 g ai/ha, visual injury, 0 to 100 scale (0 no effect, 100 complete control), approx. 10 d
Summary of the method: as §1

[8] = system: Galium (catchweed bedstraw, Galium aparine); assay: Test A postemergence; details: Galium, post-emergence, 240 h, Postemergence; for pest or weed control at 125 g/ha: 125 g ai/ha, visual rating about 10 d after treatment, read-out: Galium plant response rating (0 to 100 scale); for pest or weed control at 500 g/ha: 500 g ai/ha, visual injury, 0 to 100 scale (0 no effect, 100 complete control), approx. 10 d, read-out: Plant response rating, Galium
Summary of the method: as §1

Kochia (Kochia scoparia) = assay: Test A preemergence; details: Bassia scoparia, pre-emergence, 240 h; for pest or weed control at 125 g/ha: 125 g ai/ha; for pest or weed control at 500 g/ha: 500 g ai/ha
Summary of the method: as §1

[9] = system: ragweed (common ragweed, Ambrosia elatior); assay: Test A preemergence; details: Ambrosia artemisiifolia, pre-emergence, 240 h; for pest or weed control at 125 g/ha: 125 g ai/ha; for pest or weed control at 500 g/ha: 500 g ai/ha
Summary of the method: as §1

[10] = system: giant foxtail (Setaria faberii); assay: Test A preemergence; details: Setaria faberi, pre-emergence, 240 h; for pest or weed control at 125 g/ha: 125 g ai/ha; for pest or weed control at 500 g/ha: 500 g ai/ha
Summary of the method: as §1

[11] = system: barnyardgrass (Echinochloa crus-galli); assay: Test A preemergence; details: Echinochloa crus-galli, pre-emergence, 240 h; for pest or weed control at 125 g/ha: 125 g ai/ha; for pest or weed control at 500 g/ha: 500 g ai/ha
Summary of the method: as §1

[12] = system: ryegrass, Italian (Italian ryegrass, Lolium multiflorum); assay: Test A preemergence; details: Lolium multiflorum, pre-emergence, 240 h; for pest or weed control at 125 g/ha: 125 g ai/ha; for pest or weed control at 500 g/ha: 500 g ai/ha
Summary of the method: as §1

Compound	pest or weed control at 125 g/ha [1] [%]	pest or weed control at 500 g/ha [1] [%]	pest or weed control at 125 g/ha [2] [%]	pest or weed control at 500 g/ha [2] [%]	pest or weed control at 125 g/ha [3] [%]	pest or weed control at 500 g/ha [3] [%]	pest or weed control at 125 g/ha [4] [%]	pest or weed control at 500 g/ha [4] [%]	plant injury at 125 g/ha [5] [%]	plant injury at 500 g/ha [5] [%]	pest or weed control at 125 g/ha [6] [%]	pest or weed control at 500 g/ha [6] [%]	pest or weed control at 125 g/ha [7] [%]	pest or weed control at 500 g/ha [7] [%]	plant injury at 125 g/ha (corn (Zea mays)) [%]	Corn plant response rating (crop injury, 0 = no effect, 100 = complete kill) at 500 g/ha (corn (Zea mays)) [%]	pest or weed control at 125 g/ha [8] [%]	pest or weed control at 500 g/ha [8] [%]	also measured
CN1CC(c2cccc(OCC=C(Cl)Cl)c2)C(C(=O)Nc2cccc(F)c2F)C1=O (centres unmarked) [Compound 1303]	0	0	0	0	40	60	0	30	0	0	0	0	0	0	0	0	0	0	pest or weed control at 125 g/ha (Kochia (Kochia scoparia); preemergence, visual injury rating, 0 to 100 scale where 0 is no effect and 100 is complete control, approximately 10 d, read-out: Kochia plant response rating): 0%; pest or weed control at 500 g/ha (Kochia (Kochia scoparia); preemergence, 0 to 100 scale where 0 is no effect and 100 is complete control, read-out: Kochia plant response rating): 0%; pest or weed control at 125 g/ha ([9]; preemergence, visual injury rating, 0 to 100 scale where 0 is no effect and 100 is complete control, approximately 10 d, read-out: Ragweed plant response rating): 0%; pest or weed control at 500 g/ha ([9]; preemergence, 0 to 100 scale where 0 is no effect and 100 is complete control, read-out: Ragweed plant response rating): 0%; pest or weed control at 125 g/ha ([10]; preemergence, visual injury rating, 0 to 100 scale where 0 is no effect and 100 is complete control, approximately 10 d, read-out: Foxtail, Giant plant response rating): 40%; pest or weed control at 500 g/ha ([10]; preemergence, 0 to 100 scale where 0 is no effect and 100 is complete control, read-out: Foxtail, Giant plant response rating): 90%; pest or weed control at 125 g/ha ([11]; preemergence, visual injury rating, 0 to 100 scale where 0 is no effect and 100 is complete control, approximately 10 d, read-out: Barnyardgrass plant response rating): 0%; pest or weed control at 500 g/ha ([11]; preemergence, 0 to 100 scale where 0 is no effect and 100 is complete control, read-out: Barnyardgrass plant response rating): 30%; pest or weed control at 125 g/ha ([12]; preemergence, visual injury rating, 0 to 100 scale where 0 is no effect and 100 is complete control, approximately 10 d, read-out: Ryegrass, Italian plant response rating): 0%; pest or weed control at 500 g/ha ([12]; preemergence, 0 to 100 scale where 0 is no effect and 100 is complete control, read-out: Ryegrass, Italian plant response rating): 0%
Cc1ccc([C@H]2CN(C)C(=O)[C@@H]2C(=O)Nc2ccc(F)c(F)c2F)cc1 [Compound 1378]	40	70	30	40	80	90	80	80	60	70	30	70	40	60	80	80	60	70	pest or weed control at 500 g/ha (Kochia (Kochia scoparia); preemergence, 0 to 100 scale (0 no effect, 100 complete control), read-out: Plant response rating, Kochia): 90%; pest or weed control at 125 g/ha (Kochia (Kochia scoparia); Preemergence, 0 to 100 scale (0 no effect, 100 complete control), read-out: Plant response rating, Kochia): 80%; pest or weed control at 500 g/ha ([9]; preemergence, 0 to 100 scale (0 no effect, 100 complete control), read-out: Plant response rating, Ragweed): 90%; pest or weed control at 125 g/ha ([9]; Preemergence, 0 to 100 scale (0 no effect, 100 complete control), read-out: Plant response rating, Ragweed): 50%; pest or weed control at 500 g/ha ([10]; preemergence, 0 to 100 scale (0 no effect, 100 complete control), read-out: Plant response rating, Foxtail, Giant): 90%; pest or weed control at 125 g/ha ([10]; Preemergence, 0 to 100 scale (0 no effect, 100 complete control), read-out: Plant response rating, Foxtail, Giant): 90%; pest or weed control at 500 g/ha ([11]; preemergence, 0 to 100 scale (0 no effect, 100 complete control), read-out: Plant response rating, Barnyardgrass): 90%; pest or weed control at 125 g/ha ([11]; Preemergence, 0 to 100 scale (0 no effect, 100 complete control), read-out: Plant response rating, Barnyardgrass): 90%; pest or weed control at 500 g/ha ([12]; preemergence, 0 to 100 scale (0 no effect, 100 complete control), read-out: Plant response rating, Ryegrass, Italian): 90%; pest or weed control at 125 g/ha ([12]; Preemergence, 0 to 100 scale (0 no effect, 100 complete control), read-out: Plant response rating, Ryegrass, Italian): 80%

Source: patent US12077503B2, “Substituted cyclic amides and their use as herbicides” (FMC CORPORATION, priority 2015, dated 2024)
